The source made the active and inactive calls. No cut-off for these calls is given here.
Key:
Staphylococcus aureus [1] = assay: Antibacterial activity against methicillin resistant Staphylococcus aureus ATCC 43300 persisters assessed as reduction in colony formation at 40 ug/ml incubated for 8 hrs by colony counting method; format: functional, organism-based; conditions: dose 40.0 µg/ml
[2] = Toxicity in BALB/c mouse infected with methicillin-resistant Staphylococcus aureus ATCC 43300 assessed as damage in lung at 50 to 100 mg/kg, sc administered every 24 hrs for 4 days by H&E staining based light microscopic analysis; format: organism-based; conditions: in vivo, dose 50-100 mg/kg
[3] = Toxicity in BALB/c mouse infected with methicillin-resistant Staphylococcus aureus ATCC 43300 assessed as damage in kidney at 50 to 100 mg/kg, sc administered every 24 hrs for 4 days by H&E staining based light microscopic analysis; format: organism-based; conditions: in vivo, dose 50-100 mg/kg
[4] = Toxicity in BALB/c mouse infected with methicillin-resistant Staphylococcus aureus ATCC 43300 assessed as damage in heart at 50 to 100 mg/kg, sc administered every 24 hrs for 4 days by H&E staining based light microscopic analysis; format: organism-based; conditions: in vivo, dose 50-100 mg/kg
[5] = Toxicity in BALB/c mouse infected with methicillin-resistant Staphylococcus aureus ATCC 43300 assessed as damage in spleen at 50 to 100 mg/kg, sc administered every 24 hrs for 4 days by H&E staining based light microscopic analysis; format: organism-based; conditions: in vivo, dose 50-100 mg/kg
[6] = Toxicity in BALB/c mouse infected with methicillin-resistant Staphylococcus aureus ATCC 43300 assessed as damage in liver at 50 to 100 mg/kg, sc administered every 24 hrs for 4 days by H&E staining based light microscopic analysis; format: organism-based; conditions: in vivo, dose 50-100 mg/kg
L02 = assay: Cytotoxicity against human L02 cells assessed as cell viability at 10 ug/ml measured after 24 hrs by MTT assay; format: cell-based; conditions: l02, 24 h, dose 10 µg/ml
Staphylococcus aureus [7] = assay: Antibacterial activity against Staphylococcus aureus ATCC 25923 assessed as reduction in microbial growth after 16 to 18 hrs by microbroth dilution method; format: functional; conditions: time 16-18 hrs
Staphylococcus aureus [8] = assay: Antibacterial activity against methicillin resistant Staphylococcus aureus ATCC48073 assessed as reduction in microbial growth after 16 to 18 hrs by microbroth dilution method; format: functional; conditions: time 16-18 hrs
RAW264.7 = assay: (§1) Cytotoxicity against mouse RAW264.7 cells assessed as cell viability at 10 ug/ml measured after 24 hrs by MTT assay; format: cell-based; conditions: raw264.7, 24 h, dose 10 µg/ml
Enterococcus faecalis = assay: Antibacterial activity against Enterococcus faecalis ATCC29212 assessed as reduction in microbial growth after 16 to 18 hrs by microbroth dilution method; format: functional; conditions: ATCC 29212, time 16-18 hrs
Staphylococcus aureus [9] = assay: Antibacterial activity against methicillin resistant Staphylococcus aureus ATCC515992 assessed as reduction in microbial growth after 16 to 18 hrs by microbroth dilution method; format: functional; conditions: time 16-18 hrs
Staphylococcus aureus [10] = assay: Antibacterial activity against methicillin resistant Staphylococcus aureus ATCC48706 assessed as reduction in microbial growth after 16 to 18 hrs by microbroth dilution method; format: functional; conditions: time 16-18 hrs
Staphylococcus aureus [11] = assay: Antibacterial activity against methicillin resistant Staphylococcus aureus ATCC 52056 assessed as reduction in microbial growth after 16 to 18 hrs by microbroth dilution method; format: functional; conditions: time 16-18 hrs
Escherichia coli = assay: Antibacterial activity against Escherichia coli ATCC25922 assessed as reduction in microbial growth after 16 to 18 hrs by microbroth dilution method; format: functional; conditions: ATCC 25922, time 16-18 hrs
Staphylococcus aureus [12] = assay: Antibacterial activity against methicillin resistant Staphylococcus aureus ATCC49800 assessed as reduction in microbial growth after 16 to 18 hrs by microbroth dilution method; format: functional; conditions: time 16-18 hrs
Staphylococcus aureus [13] = assay: Antibacterial activity against methicillin resistant Staphylococcus aureus ATCC48966 assessed as reduction in microbial growth after 16 to 18 hrs by microbroth dilution method; format: functional; conditions: time 16-18 hrs
Pseudomonas aeruginosa = assay: Antibacterial activity against Pseudomonas aeruginosa ATCC27853 assessed as reduction in microbial growth after 16 to 18 hrs by microbroth dilution method; format: functional; conditions: time 16-18 hrs
Staphylococcus aureus [14] = assay: Antibacterial activity against methicillin resistant Staphylococcus aureus ATCC49025 assessed as reduction in microbial growth after 16 to 18 hrs by microbroth dilution method; format: functional; conditions: time 16-18 hrs
Staphylococcus aureus [15] = assay: Antibacterial activity against methicillin resistant Staphylococcus aureus ATCC 62202 assessed as reduction in microbial growth after 16 to 18 hrs by microbroth dilution method; format: functional; conditions: time 16-18 hrs
Staphylococcus aureus [16] = assay: Antibacterial activity against methicillin resistant Staphylococcus aureus ATCC513045 assessed as reduction in microbial growth after 16 to 18 hrs by microbroth dilution method; format: functional; conditions: time 16-18 hrs
Staphylococcus aureus [17] = assay: Antibacterial activity against methicillin resistant Staphylococcus aureus ATCC 43300 assessed as reduction in microbial growth after 16 to 18 hrs by microbroth dilution method; format: functional; conditions: time 16-18 hrs
Staphylococcus aureus [18] = assay: Antibacterial activity against methicillin resistant Staphylococcus aureus ATCC49008 assessed as reduction in microbial growth after 16 to 18 hrs by microbroth dilution method; format: functional; conditions: time 16-18 hrs
[19] = as §1; format: cell-based; conditions: RAW264.7 cells, at 10 µg/mL, read-out: Activity

Compound: CCCCCCCCCC(=O)N[C@@H](Cc1c[nH]c2ccccc12)C(=O)N[C@H](CC(N)=O)C(=O)N[C@@H](CC(=O)O)C(=O)N[C@@H]1C(=O)NCC(=O)N[C@@H](CCCN)C(=O)N[C@@H](CC(=O)O)C(=O)N[C@H](C)C(=O)N[C@@H](CC(=O)O)C(=O)NCC(=O)N[C@H](CO)C(=O)N[C@@H]([C@H](C)CC(=O)O)C(=O)N[C@@H](CC(=O)c2ccccc2N)C(=O)O[C@@H]1C
- Activity (Staphylococcus aureus [1]): inactive

Compound: O=C(O)c1cn(C2CC2)c2cc(N3CCNCC3)c(F)cc2c1=O
- Activity (Staphylococcus aureus [1]): inactive

Compound: CN[C@H](CC(C)C)C(=O)N[C@H]1C(=O)N[C@@H](CC(N)=O)C(=O)N[C@H]2C(=O)N[C@H]3C(=O)N[C@H](C(=O)N[C@H](C(=O)O)c4cc(O)cc(O)c4-c4cc3ccc4O)[C@H](O)c3ccc(c(Cl)c3)Oc3cc2cc(c3O[C@@H]2O[C@H](CO)[C@@H](O)[C@H](O)[C@H]2O[C@H]2C[C@](C)(N)[C@H](O)[C@H](C)O2)Oc2ccc(cc2Cl)[C@H]1O [VANCOMYCIN]
- Activity [2]: Non-Toxic
- Activity [3]: Non-Toxic
- Activity [4]: Non-Toxic
- Activity [5]: Non-Toxic
- Activity [6]: Non-Toxic

Compound: CO[C@H]1/C=C/O[C@@]2(C)Oc3c(C)c(O)c4c(O)c(c(/C=N/N5CCN(C)CC5)c(O)c4c3C2=O)NC(=O)/C(C)=C\C=C\[C@H](C)[C@H](O)[C@@H](C)[C@@H](O)[C@@H](C)[C@H](OC(C)=O)[C@@H]1C
- Activity (Staphylococcus aureus [1]): inactive

Compound: CC(C)=CCc1c(OCCCC(F)(F)F)cc(/C=C/c2ccc(F)cc2)c(C(=O)O)c1O
- Activity (L02): Toxic
- MIC (Staphylococcus aureus [7]): 4 µg/mL
- MIC (Staphylococcus aureus [8]): 4 µg/mL
- Activity (RAW264.7): Toxic
- MIC (Enterococcus faecalis): > 32 µg/mL
- MIC (Staphylococcus aureus [9]): 4 µg/mL
- MIC (Staphylococcus aureus [10]): 4 µg/mL
- MIC (Staphylococcus aureus [11]): 4 µg/mL
- MIC (Escherichia coli): > 32 µg/mL
- MIC (Staphylococcus aureus [12]): 4 µg/mL
- MIC (Staphylococcus aureus [13]): 4 µg/mL
- MIC (Pseudomonas aeruginosa): > 32 µg/mL
- MIC (Staphylococcus aureus [14]): 4 µg/mL
- MIC (Staphylococcus aureus [15]): 4 µg/mL
- MIC (Staphylococcus aureus [16]): 4 µg/mL
- MIC (Staphylococcus aureus [17]): 4 µg/mL
- MIC (Staphylococcus aureus [18]): 4 µg/mL

Compound: CC(C)=CCc1c(OC2CCCC2)cc(/C=C/c2ccc(F)cc2)c(C(=O)O)c1O
- Activity (L02): Toxic
- MIC (Staphylococcus aureus [7]): 2 µg/mL
- MIC (Staphylococcus aureus [8]): 4 µg/mL
- Activity (RAW264.7): Toxic
- MIC (Enterococcus faecalis): > 32 µg/mL
- MIC (Staphylococcus aureus [9]): 2 µg/mL
- MIC (Staphylococcus aureus [10]): 4 µg/mL
- MIC (Staphylococcus aureus [11]): 2 µg/mL
- MIC (Escherichia coli): > 32 µg/mL
- MIC (Staphylococcus aureus [12]): 4 µg/mL
- MIC (Staphylococcus aureus [13]): 4 µg/mL
- MIC (Pseudomonas aeruginosa): > 32 µg/mL
- MIC (Staphylococcus aureus [14]): 4 µg/mL
- MIC (Staphylococcus aureus [15]): 2 µg/mL
- MIC (Staphylococcus aureus [16]): 2 µg/mL
- MIC (Staphylococcus aureus [17]): 2 µg/mL
- MIC (Staphylococcus aureus [18]): 4 µg/mL

Compound: CCC(C)Oc1cc(/C=C/c2ccc(C(F)(F)F)cc2)c(C(=O)O)c(O)c1CC=C(C)C (configuration not stated)
- Activity (L02): Toxic
- MIC (Staphylococcus aureus [7]): 2 µg/mL
- MIC (Staphylococcus aureus [8]): 2 µg/mL
- Activity (RAW264.7): Toxic
- MIC (Enterococcus faecalis): > 32 µg/mL
- MIC (Staphylococcus aureus [9]): 2 µg/mL
- MIC (Staphylococcus aureus [10]): 2 µg/mL
- MIC (Staphylococcus aureus [11]): 2 µg/mL
- MIC (Escherichia coli): > 32 µg/mL
- MIC (Staphylococcus aureus [12]): 2 µg/mL
- MIC (Staphylococcus aureus [13]): 2 µg/mL
- MIC (Pseudomonas aeruginosa): > 32 µg/mL
- MIC (Staphylococcus aureus [14]): 2 µg/mL
- MIC (Staphylococcus aureus [15]): 2 µg/mL
- MIC (Staphylococcus aureus [16]): 2 µg/mL
- MIC (Staphylococcus aureus [17]): 1 µg/mL
- MIC (Staphylococcus aureus [18]): 2 µg/mL

Compound: CC(C)=CCc1c(OCC2CC2)cc(/C=C/c2ccc(F)cc2)c(C(=O)O)c1O
- Activity (L02): Toxic
- MIC (Staphylococcus aureus [7]): 2 µg/mL
- MIC (Staphylococcus aureus [8]): 2 µg/mL
- Activity (RAW264.7): Toxic
- MIC (Enterococcus faecalis): > 32 µg/mL
- MIC (Staphylococcus aureus [9]): 2 µg/mL
- MIC (Staphylococcus aureus [10]): 2 µg/mL
- MIC (Staphylococcus aureus [11]): 2 µg/mL
- MIC (Escherichia coli): > 32 µg/mL
- MIC (Staphylococcus aureus [12]): 2 µg/mL
- MIC (Staphylococcus aureus [13]): 2 µg/mL
- MIC (Pseudomonas aeruginosa): > 32 µg/mL
- MIC (Staphylococcus aureus [14]): 2 µg/mL
- MIC (Staphylococcus aureus [15]): 4 µg/mL
- MIC (Staphylococcus aureus [16]): 2 µg/mL
- MIC (Staphylococcus aureus [17]): 2 µg/mL
- MIC (Staphylococcus aureus [18]): 2 µg/mL

Compound: CCCC(CC)Oc1cc(/C=C/c2ccc(F)cc2)c(C(=O)O)c(O)c1CC=C(C)C (configuration not stated)
- Activity (L02): Toxic
- MIC (Staphylococcus aureus [7]): 2 µg/mL
- MIC (Staphylococcus aureus [8]): 4 µg/mL
- Activity (RAW264.7): Toxic
- MIC (Enterococcus faecalis): > 32 µg/mL
- MIC (Staphylococcus aureus [9]): 2 µg/mL
- MIC (Staphylococcus aureus [10]): 4 µg/mL
- MIC (Staphylococcus aureus [11]): 2 µg/mL
- MIC (Escherichia coli): > 32 µg/mL
- MIC (Staphylococcus aureus [12]): 2 µg/mL
- MIC (Staphylococcus aureus [13]): 2 µg/mL
- MIC (Pseudomonas aeruginosa): > 32 µg/mL
- MIC (Staphylococcus aureus [14]): 2 µg/mL
- MIC (Staphylococcus aureus [15]): 2 µg/mL
- MIC (Staphylococcus aureus [16]): 2 µg/mL
- MIC (Staphylococcus aureus [17]): 1 µg/mL
- MIC (Staphylococcus aureus [18]): 2 µg/mL

Compound: CC(C)=CCc1c(OCC2CC2)cc(/C=C/c2ccc(C(F)(F)F)cc2)c(C(=O)O)c1O
- Activity (L02): Toxic
- MIC (Staphylococcus aureus [7]): 1 µg/mL
- MIC (Staphylococcus aureus [8]): 2 µg/mL
- Activity (RAW264.7): Toxic
- MIC (Enterococcus faecalis): > 32 µg/mL
- MIC (Staphylococcus aureus [9]): 2 µg/mL
- MIC (Staphylococcus aureus [10]): 2 µg/mL
- MIC (Staphylococcus aureus [11]): 1 µg/mL
- MIC (Escherichia coli): > 32 µg/mL
- MIC (Staphylococcus aureus [12]): 2 µg/mL
- MIC (Staphylococcus aureus [13]): 2 µg/mL
- MIC (Pseudomonas aeruginosa): > 32 µg/mL
- MIC (Staphylococcus aureus [14]): 2 µg/mL
- MIC (Staphylococcus aureus [15]): 2 µg/mL
- MIC (Staphylococcus aureus [16]): 2 µg/mL
- MIC (Staphylococcus aureus [17]): 2 µg/mL
- MIC (Staphylococcus aureus [18]): 2 µg/mL

Compound: CC(C)=CCc1c(OC2CCOCC2)cc(/C=C/c2ccc(F)cc2)c(C(=O)O)c1O
- Activity (L02): Toxic
- MIC (Staphylococcus aureus [7]): 16 µg/mL
- MIC (Staphylococcus aureus [8]): 16 µg/mL
- viability at 24 h, 10 ug/ml [19]: > 60%
- MIC (Enterococcus faecalis): > 32 µg/mL
- MIC (Staphylococcus aureus [9]): 32 µg/mL
- MIC (Staphylococcus aureus [10]): 16 µg/mL
- MIC (Staphylococcus aureus [11]): 8 µg/mL
- MIC (Escherichia coli): > 32 µg/mL
- MIC (Staphylococcus aureus [12]): 16 µg/mL
- MIC (Staphylococcus aureus [13]): 16 µg/mL
- MIC (Pseudomonas aeruginosa): > 32 µg/mL
- MIC (Staphylococcus aureus [14]): 16 µg/mL
- MIC (Staphylococcus aureus [15]): 32 µg/mL
- MIC (Staphylococcus aureus [16]): 16 µg/mL
- MIC (Staphylococcus aureus [17]): 1 µg/mL
- MIC (Staphylococcus aureus [18]): 16 µg/mL

From ChEMBL document CHEMBL4828717, “Synthetic cajaninstilbene acid derivatives eradicate methicillin-resistant Staphylococcus aureus persisters and biofilms” (Eur J Med Chem, 2021)
